Here are results for two compounds from patent publication US20070027130A1, “Tricyclic 6-alkylidene-penem beta-lactamase inhibitors and beta-lactam antibiotic combination: a broad spectrum antibiotic” (priority 2005, published 2007).

pIC50: −log10 of the molar value.

As a reminder, the pIC50 is the IC50 on a negative log10 scale, so that one unit is a factor of ten.

Experiment in all cases: β-Lactamase inhibition, nitrocefin spectrophotometric assay
For experiment [1], the target named is class A β-lactamase TEM-1 (Escherichia coli, UniProt P62593). In kind it is biochemical, E. coli. As to conditions: nitrocefin 50 μg/ml; 10 min preincubation at 25° C.; pH 7.0.
Sequence of class A β-lactamase TEM-1 (P62593 24-286 limits assumed): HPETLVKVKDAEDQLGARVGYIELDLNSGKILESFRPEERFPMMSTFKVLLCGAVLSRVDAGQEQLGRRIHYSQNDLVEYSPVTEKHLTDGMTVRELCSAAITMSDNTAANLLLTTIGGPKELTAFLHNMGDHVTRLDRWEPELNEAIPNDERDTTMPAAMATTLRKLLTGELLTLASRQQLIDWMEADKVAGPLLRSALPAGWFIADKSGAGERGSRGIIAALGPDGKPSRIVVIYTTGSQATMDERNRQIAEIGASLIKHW
Another experiment deals with class B enzyme CcrA (Bacteroides fragilis, UniProt P25910). The format is biochemical. To be noted: nitrocefin 50 μg/ml; 10 min preincubation at 25° C.; pH 7.0; read-out: IC50 Class-B Ccr.
Sequence of class B enzyme CcrA (P25910 19-249): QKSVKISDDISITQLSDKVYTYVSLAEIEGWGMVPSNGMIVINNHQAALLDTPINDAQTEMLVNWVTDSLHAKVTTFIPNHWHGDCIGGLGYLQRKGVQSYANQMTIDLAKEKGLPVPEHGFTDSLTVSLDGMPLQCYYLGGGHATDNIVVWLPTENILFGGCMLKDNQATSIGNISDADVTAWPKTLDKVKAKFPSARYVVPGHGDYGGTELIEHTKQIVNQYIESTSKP
The target of the next experiment is class C enzyme AmpC (Enterobacter cloacae, UniProt P05364). In kind it is biochemical.
Sequence of class C enzyme AmpC (P05364 21-381): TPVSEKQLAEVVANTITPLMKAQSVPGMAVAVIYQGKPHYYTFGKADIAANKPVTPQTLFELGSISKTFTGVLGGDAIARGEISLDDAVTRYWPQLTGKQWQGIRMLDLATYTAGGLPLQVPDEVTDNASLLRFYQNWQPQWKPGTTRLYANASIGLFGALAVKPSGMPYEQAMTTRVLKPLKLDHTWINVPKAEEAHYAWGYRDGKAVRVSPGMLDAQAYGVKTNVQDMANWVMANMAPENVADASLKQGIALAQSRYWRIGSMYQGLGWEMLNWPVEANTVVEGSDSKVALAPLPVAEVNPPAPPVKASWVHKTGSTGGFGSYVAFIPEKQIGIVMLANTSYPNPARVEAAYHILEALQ
Experiment [2] has as its target class A β-lactamase Imi-1 (Enterobacter cloacae, UniProt Q46991).

Sequence of class A β-lactamase Imi-1 (Q46991 entry or part of it): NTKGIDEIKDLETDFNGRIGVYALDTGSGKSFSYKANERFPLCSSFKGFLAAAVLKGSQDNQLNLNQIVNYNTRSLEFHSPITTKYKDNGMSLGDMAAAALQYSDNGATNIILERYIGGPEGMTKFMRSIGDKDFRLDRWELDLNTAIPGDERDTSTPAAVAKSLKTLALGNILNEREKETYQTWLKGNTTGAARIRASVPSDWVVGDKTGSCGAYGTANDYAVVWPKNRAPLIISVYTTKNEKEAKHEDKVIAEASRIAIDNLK

On to `O=C(O)C1=CS[C@@H]2/C(=C\c3cn4c5c(sc4n3)CCC5)C(=O)N12` [Compound 1, (5R),(6Z)-6-(6,7-dihydro-5H-cyclopenta[d]imidazo[2,1-b][1,3]thiazol-2-ylmethylene)-7-oxo-4-thia-1-azabicyclo[3.2.0]hept-2-ene-2-carboxylic acid], for which the pIC50 in experiment [1] was 8.85; on class B enzyme CcrA, 6.62; against class C enzyme AmpC, 8.62.
For `O=C(O)C1=CS[C@@H]2/C(=C\c3cn4c5c(sc4n3)COCC5)C(=O)N12` [Compound 2, (5R),(6Z)-6-(5,8-dihydro-6H-imidazo[2,1-b]pyrano[4,3-d][1,3]thiazol-2-ylmethylene)-7-oxo-4-thia-1-azabicyclo[3.2.0]hept-2-ene-2-carboxylic acid], the pIC50 in experiment [1] was 8.55; on class B enzyme CcrA, 6.70; against class C enzyme AmpC it was 8.82; in experiment [2] it was 7.00.
